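Dose response: 5 concentrations. Exposure: 48 h. Format: 96-well plates. Endpoint: linear interpolation; highest concentration if not reached. Abbreviation: GI50, concentration required for 50% inhibition of growth. Definition used: TGI = concentration required for complete inhibition of growth.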

Test systems include SF-539 CNS; SK-MEL-28 melanoma; MOLT-4 leukemia; IGROV1 ovarian; UACC-62 melanoma; OVCAR-5 ovarian; EKVX NSCLC; M14 melanoma; PC-3 prostate; CCRF-CEM leukemia.
Holding throughout (assay): growth of human tumour cells (NCI), 48 h

For `Fc1ccc(-c2nn3c(COc4ccc(Cl)cc4Cl)nnc3s2)cc1Oc1ccccc1`, the GI50 in the assay on SF-539 CNS is 18 µM; in the assay on SK-MEL-28 melanoma it was 15.8 µM; with MOLT-4 leukemia, 7.08 µM; in the assay on IGROV1 ovarian, 26.2 µM; with UACC-62 melanoma, 14.3 µM; in the assay on OVCAR-5 ovarian, 11.1 µM. Further, the GI50 in the assay with EKVX NSCLC was 23.7 µM; with M14 melanoma, 23 µM; in the assay on PC-3 prostate, 8.94 µM; in the assay on CCRF-CEM leukemia it was 16.8 µM. The TGI was 32.3 µM in the assay with SF-539 CNS; 42.9 µM in the assay on SK-MEL-28 melanoma; 27.8 µM in the assay with MOLT-4 leukemia; 92.6 µM with IGROV1 ovarian; 28.9 µM with UACC-62 melanoma; 23.7 µM in the assay with OVCAR-5 ovarian. For the same molecule, the TGI in the assay on EKVX NSCLC worked out at 67.3 µM; with M14 melanoma, 67.2 µM; with PC-3 prostate, 21.4 µM; in the assay on CCRF-CEM leukemia it was 39 µM.

`CCCCCCSc1nc(COC(=O)NC)c(COC(=O)NC)n1C`: the TGI in the assay on SF-539 CNS, in the assay with SK-MEL-28 melanoma, in the assay with MOLT-4 leukemia, in the assay on IGROV1 ovarian, in the assay with UACC-62 melanoma and in the assay with OVCAR-5 ovarian was > 100 µM each time. For the same molecule, the TGI with EKVX NSCLC, with M14 melanoma, with PC-3 prostate and in the assay on CCRF-CEM leukemia was > 100 µM throughout.

On to `CCOC(=O)c1cc(-c2ccccc2)[nH]c1N/N=C/c1c(Cl)cccc1Cl`, for which the GI50 was 0.467 µM in the assay with SF-539 CNS; 3.35 µM with SK-MEL-28 melanoma; 4.24 µM in the assay with MOLT-4 leukemia; 0.752 µM in the assay on IGROV1 ovarian; 2.03 µM with UACC-62 melanoma; 4.99 µM in the assay on OVCAR-5 ovarian. Further, the GI50 is 5.96 µM in the assay with EKVX NSCLC, 1.71 µM in the assay with M14 melanoma, 0.502 µM in the assay with PC-3 prostate and 2.3 µM in the assay with CCRF-CEM leukemia. Besides, the TGI is 3.73 µM with SF-539 CNS; > 75 µM with SK-MEL-28 melanoma; 24.3 µM in the assay with MOLT-4 leukemia; 29.3 µM in the assay with IGROV1 ovarian; > 100 µM in the assay with UACC-62 melanoma; 98 µM in the assay on OVCAR-5 ovarian. In addition, the TGI in the assay with EKVX NSCLC is > 100 µM; with M14 melanoma, 25.3 µM; in the assay on PC-3 prostate it was 37.5 µM; in the assay on CCRF-CEM leukemia, 13.5 µM.

In the case of `COc1cc(NC(=O)c2ccccc2Nc2ccnc(C(F)(F)F)c2)cc(OC)c1OC`, the GI50 in the assay on SF-539 CNS was > 100 µM; with SK-MEL-28 melanoma, > 100 µM; in the assay with MOLT-4 leukemia it was 36.9 µM; with IGROV1 ovarian it was 35.1 µM; in the assay with UACC-62 melanoma it was 36.8 µM; with OVCAR-5 ovarian, > 100 µM. For the same molecule, the GI50 in the assay with EKVX NSCLC is 48.3 µM; in the assay with M14 melanoma, 73.3 µM; in the assay with PC-3 prostate, 35.3 µM; in the assay with CCRF-CEM leukemia, 50.7 µM. For the same molecule, the TGI was > 100 µM in the assay with SF-539 CNS; > 100 µM with SK-MEL-28 melanoma; > 100 µM in the assay on MOLT-4 leukemia; 89.7 µM in the assay with IGROV1 ovarian; > 100 µM in the assay on UACC-62 melanoma; > 100 µM in the assay on OVCAR-5 ovarian. Besides, the TGI in the assay with EKVX NSCLC, in the assay on M14 melanoma, with PC-3 prostate and in the assay on CCRF-CEM leukemia was > 100 µM each time.

The values are drawn from PubChem BioAssay (NCI).
